Assay [1] deals with Nucleic Acid. The assay is described as follows: Conversion of type 1 supercoiled DNA to type 2 nicked DNA. The format is nucleic-acid assay. Set-up: concentration or dose not given beside the values.
Assay [2] deals with Nucleic Acid. The assay is described as follows: Conversion of type 1 supercoiled DNA to type 2 nicked DNA in presence of dithiothreitol. The format is nucleic-acid assay. Set-up: concentration or dose not given beside the values.
The test system of assay [3] is Nucleic Acid. The assay is described as follows: Cleavage of supercoiled DNA plasmid pBR322 after 2 days in presence of sodium cyanide. The format is nucleic-acid assay.
The subject of assay [4] is HeLa. The assay is described as follows: Antiproliferative activity against HeLa cells at 100 nM after 12 hrs. The format is functional. Conditions: Homo sapiens.
For assay [5], the system named is Nucleic Acid. In words: Cleavage of supercoiled DNA plasmid pBR322 after 2 days in presence of NADPH. It is filed as nucleic-acid assay.
Assay [6] has as its system HeLa. The assay is described as follows: Antiproliferative activity against HeLa cells at 100 nM. It is filed as functional, cell-based. The following applies: Homo sapiens.
In assay [7] the test system is Nucleic Acid. In words: Conversion of type 1 supercoiled DNA to type 2 nicked DNA in presence of dithiothreitol relative to Kinamycin D. It is filed as nucleic-acid assay.
Assay [8] has as its system Nucleic Acid. The assay is described as follows: Cleavage of supercoiled DNA plasmid pBR322 after 2 days. The format is nucleic-acid assay.
Assay [9] deals with Nucleic Acid. In words: Cleavage of supercoiled DNA plasmid pBR322 after 2 days in presence of dithiothreitol. The format is nucleic-acid assay.

Molecules are shown by their SMILES. Active and inactive are the calls of the source. The calls are words filed in the database; no cut-off is given here.

Usually inhibition stands for how much of the control response was suppressed.

For `[N-]=[N+]=C1c2ccccc2-c2ccccc21`, the Activity in assay [1] and in [2] was under 5% in each case.

With `COc1cccc2c1C(=[N+]=[N-])c1ccccc1-2`, the outcome in assay [3] and in assay [5] was inactive. The same molecule showed an inhibition at 0.1 µM in [4] of 35%. In addition, the Activity in [1] was 11%; in assay [6], “Time-dependent effect”; in assay [7], 150%; in assay [2] it was 41%.

With `COc1cccc2c1C(=O)c1ccccc1-2`, in [8], the result was inactive.

Consider `CC(=O)O[C@@H]1c2c(c3c(=O)c4cccc(O)c4c(=O)c=3c2=[N+]=[N-])[C@H](O)[C@@H](OC(C)=O)[C@]1(C)O`, for which the result in [8] was inactive. Moreover, the figures for the Activity in assay [1], in [9] and in [2] were under 5%, “Time-dependent effect” and 28%, respectively.

In the case of `[N-]=[N+]=C1c2ccccc2-c2c1cccc2[N+](=O)[O-]`, the Activity in assay [1] and in [2] was under 5% each time.

As to `COc1cccc2c1-c1ccccc1C2=[N+]=[N-]`, the Activity in assay [1] was under 5%; in assay [2], 13%.

With `COc1ccc(OC)c2c1C(=[N+]=[N-])c1ccccc1-2`, the results for the Activity in assay [1] and in [2] were under 5% and 9%, respectively.

As for `[N-]=[N+]=C1c2ccccc2-c2cccc([N+](=O)[O-])c21`, the Activity in assay [1] and in assay [2] was under 5% each time.

`[N-]=[N+]=C1c2ccccc2-c2c(Cl)cccc21`: the Activity in assay [1] and in assay [2] was under 5% throughout.

Take `[N-]=[N+]=C1c2ccccc2-c2cccc(Cl)c21`: the Activity in assay [1] and in assay [2] was under 5% each time.

As for `[N-]=[N+]=C1c2ccccc2-c2c(N)cccc21`, the outcome in [8] and in [9] was Active. Moreover, the Activity in assay [1] turned out to be 44%; in [7], 64%; in assay [2] it was 18%.

Regarding `Nc1cccc2c1-c1ccccc1C2=O`, in [8], the outcome was inactive.

On to `[N-]=[N+]=c1c2c(=O)ccc(=O)c=2c2ccccc12`, for which the Activity in assay [1] was under 5%; in assay [2], 10%.

For the origin of these results see ChEMBL document CHEMBL1148672, “Mimicking the biological activity of diazobenzo[b]fluorene natural products with electronically tuned diazofluorene analogs” (2006).
